The values below come from PMC9046087, “Structural basis of tethered agonism of the adhesion GPCRs ADGRD1 and ADGRF1” (Nature, 2022).

Common to all, as to assay: BRET assay using TRUPATH biosensors, Gs activation of ADGRF1
Common to all, as to assay type: cell-based
In general terms: In BRET a luciferase serves as donor, and the signal depends on an acceptor being close.

Experiment [1] addresses T1, ADGRF1 (Homo sapiens, UniProt Q5T601).
T1 construct: Flag (N); expressed in transfected cells; host or cells: HEK293F
T1 sequence (Q5T601 20-910): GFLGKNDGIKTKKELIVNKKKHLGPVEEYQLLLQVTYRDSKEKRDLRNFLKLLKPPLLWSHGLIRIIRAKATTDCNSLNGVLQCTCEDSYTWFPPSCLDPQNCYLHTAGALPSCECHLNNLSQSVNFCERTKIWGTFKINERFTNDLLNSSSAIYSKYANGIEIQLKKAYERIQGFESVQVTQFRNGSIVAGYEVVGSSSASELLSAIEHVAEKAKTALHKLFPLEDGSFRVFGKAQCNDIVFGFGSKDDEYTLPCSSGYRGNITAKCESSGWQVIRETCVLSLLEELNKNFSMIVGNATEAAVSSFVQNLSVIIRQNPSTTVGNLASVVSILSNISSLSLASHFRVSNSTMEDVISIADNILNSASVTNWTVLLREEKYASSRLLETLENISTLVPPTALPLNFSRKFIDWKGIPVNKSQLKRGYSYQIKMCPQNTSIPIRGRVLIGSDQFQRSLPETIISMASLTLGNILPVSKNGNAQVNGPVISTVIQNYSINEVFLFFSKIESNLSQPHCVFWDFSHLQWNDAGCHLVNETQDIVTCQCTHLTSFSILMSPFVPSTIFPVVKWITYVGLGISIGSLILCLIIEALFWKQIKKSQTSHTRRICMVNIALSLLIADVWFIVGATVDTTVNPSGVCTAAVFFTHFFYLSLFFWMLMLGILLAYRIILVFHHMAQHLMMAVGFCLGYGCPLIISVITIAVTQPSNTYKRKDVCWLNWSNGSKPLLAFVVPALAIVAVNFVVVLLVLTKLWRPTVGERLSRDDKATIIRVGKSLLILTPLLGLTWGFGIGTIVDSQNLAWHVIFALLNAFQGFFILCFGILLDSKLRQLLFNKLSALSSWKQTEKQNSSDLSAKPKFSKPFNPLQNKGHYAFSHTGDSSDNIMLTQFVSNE
The settings on record: Gs, ADGRF1 WT, n = 7. Here is the method:
(§1) To study the synthetic stalk peptide-induced G protein activation of ADGRD1 and ADGRF1, a BRET assay using TRUPATH biosensors was conducted to measure the proximal interaction between RLuc8 fused to the Gα subunit and GFP2 fused to the Gγ subunit. The TRUPATH suite of biosensors was obtained from Addgene (Addgene kit no. 1000000163) as a gift from B. Roth, including GαsS-RLuc8, Gαi1-RLuc8, Gβ3 and Gγ9-GFP2 as previously described.
(§2) The wild-type or mutant ADGRD1 and ADGRF1 were transiently co-transfected with plasmids encoding Gα-RLuc8 (GαsS-RLuc8 for Gs activation assay; Gαi1-RLuc8 for Gi activation assay), Gβ3 and Gγ9-GFP2 at a ratio of 2:1:1:1 (receptor plasmid, 800 ng; G protein subunit plasmids, 400 ng for each) in 2 ml HEK293F cells at a density of 1.2 × 10^6 cells per ml. Cell cultivation and receptor surface expression measurement were performed as described above. The cells were plated into 96-well white plates (40,000 cells per well) in 60 μl of assay buffer and incubated at 37 °C for 30 min. Then 10 μl of freshly prepared 50 μM coelenterazine 400a (Nanolight Technologies) was added. […] The cells were stimulated with 30 μl of synthetic stalk peptide at different concentrations and the BRET signals were monitored continuously five times. The last measurements were used in data analysis. The BRET ratios were calculated as the ratio of the GFP2 emission to RLuc8 emission.

The target in experiment [2] is T2, ADGRF1 (Homo sapiens, UniProt Q5T601, F690A).
T2 construct: Flag (N); expressed in transfected cells; host or cells: HEK293F
T2 sequence (Q5T601 20-910 F690A): T1 sequence (Q5T601 20-910) with F671A
The settings on record: Gs, ADGRF1 F690^ICL2A, n = 3. As for the experimental part:
as §1, §2

For experiment [3], the target named is T3, ADGRF1 (Homo sapiens, UniProt Q5T601, R788A).
T3 construct: Flag (N); expressed in transfected cells; host or cells: HEK293F
The settings on record: Gs, ADGRF1 R788^6.37bA, n = 3. Here is the method:
as §1, §2

The mark [4] stands for this setting: read-out: pEC50 (mean ± s.e.m.) (converted).

Changes are numbered by the printed parent chain. Ends that are not written are not given here.

T3 sequence (Q5T601 20-910 R788A): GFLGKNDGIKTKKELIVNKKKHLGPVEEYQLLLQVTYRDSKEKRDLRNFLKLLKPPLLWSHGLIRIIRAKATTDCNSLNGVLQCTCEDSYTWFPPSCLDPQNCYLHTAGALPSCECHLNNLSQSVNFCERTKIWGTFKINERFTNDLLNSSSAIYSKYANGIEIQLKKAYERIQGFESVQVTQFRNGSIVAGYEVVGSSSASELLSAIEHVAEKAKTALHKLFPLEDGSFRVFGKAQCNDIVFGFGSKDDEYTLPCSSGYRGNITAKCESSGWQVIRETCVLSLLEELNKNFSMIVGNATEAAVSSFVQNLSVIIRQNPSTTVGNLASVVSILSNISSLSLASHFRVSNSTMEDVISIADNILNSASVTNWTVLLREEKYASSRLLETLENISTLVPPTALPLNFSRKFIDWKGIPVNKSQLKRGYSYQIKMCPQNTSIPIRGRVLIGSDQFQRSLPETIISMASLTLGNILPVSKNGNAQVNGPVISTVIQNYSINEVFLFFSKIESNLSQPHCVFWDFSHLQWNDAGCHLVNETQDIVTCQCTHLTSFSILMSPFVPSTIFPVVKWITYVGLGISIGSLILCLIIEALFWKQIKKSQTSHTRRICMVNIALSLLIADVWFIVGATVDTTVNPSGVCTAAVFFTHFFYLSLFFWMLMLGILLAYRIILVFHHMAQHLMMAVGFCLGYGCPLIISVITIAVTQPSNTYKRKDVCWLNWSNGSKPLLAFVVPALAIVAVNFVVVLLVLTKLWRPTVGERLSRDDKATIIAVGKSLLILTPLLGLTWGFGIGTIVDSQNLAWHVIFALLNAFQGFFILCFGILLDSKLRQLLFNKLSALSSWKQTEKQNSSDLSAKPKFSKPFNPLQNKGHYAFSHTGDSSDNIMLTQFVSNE

Take TSFSILMSPFVP [pF1]: the “Emax (mean ± s.e.m.)” value at ADGRF1 [1] was 100 ± 9 % of WT; on ADGRF1 [2] it was 110 ± 12 % of WT; at ADGRF1 [3] it was 112 ± 15 % of WT. The EC50 on ADGRF1 [1] (setting [4]) is 0.0355 µM; on ADGRF1 [2] (setting [4]) it was 0.115 µM; on ADGRF1 [3] (setting [4]), 0.933 µM.
